Measured values: patent EP4663640A1 (Shanghai Institute of Materia Medica, Chinese Academy of …, priority 2023, dated 2024)

molecular target: T1, hTRPC5 (Homo sapiens, UniProt Q9UL62); assay: TRPC5 inhibitory activity assay (FLIPR calcium fluorescence, Englerin A stimulation); assay type: cell-based; conditions: not given
T1 construct: expressed in transfected cells; host or cells: HEK-293
T1 sequence (Q9UL62 1-973): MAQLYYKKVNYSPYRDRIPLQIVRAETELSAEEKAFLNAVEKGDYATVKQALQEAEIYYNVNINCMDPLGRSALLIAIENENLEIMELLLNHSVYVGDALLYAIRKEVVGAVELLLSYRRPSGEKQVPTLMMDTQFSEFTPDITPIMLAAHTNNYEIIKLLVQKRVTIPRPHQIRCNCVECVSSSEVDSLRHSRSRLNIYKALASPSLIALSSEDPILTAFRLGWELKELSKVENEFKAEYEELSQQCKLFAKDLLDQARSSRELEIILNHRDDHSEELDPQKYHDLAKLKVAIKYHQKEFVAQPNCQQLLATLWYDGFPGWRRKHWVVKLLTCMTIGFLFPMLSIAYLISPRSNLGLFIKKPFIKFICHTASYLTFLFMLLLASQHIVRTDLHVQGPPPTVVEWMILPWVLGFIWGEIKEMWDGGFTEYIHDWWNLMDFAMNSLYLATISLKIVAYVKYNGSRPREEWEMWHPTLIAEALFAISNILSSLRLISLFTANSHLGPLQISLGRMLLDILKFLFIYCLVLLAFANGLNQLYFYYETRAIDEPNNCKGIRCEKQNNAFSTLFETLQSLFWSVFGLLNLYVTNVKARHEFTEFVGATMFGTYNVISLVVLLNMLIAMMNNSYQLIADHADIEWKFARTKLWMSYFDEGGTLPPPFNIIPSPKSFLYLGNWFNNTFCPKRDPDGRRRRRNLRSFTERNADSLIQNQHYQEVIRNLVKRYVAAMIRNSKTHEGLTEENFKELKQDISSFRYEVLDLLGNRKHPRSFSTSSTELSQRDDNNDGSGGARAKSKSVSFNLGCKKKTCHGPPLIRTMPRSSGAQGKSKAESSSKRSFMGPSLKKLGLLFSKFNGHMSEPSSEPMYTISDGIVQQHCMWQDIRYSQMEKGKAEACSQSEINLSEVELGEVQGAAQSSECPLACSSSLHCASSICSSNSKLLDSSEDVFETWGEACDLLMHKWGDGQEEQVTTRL
Protocol: HEK-293 cells expressing hTRPC3, hTRPC4 or hTRPC5 were seeded into black-bottomed 96-well plates coated with poly-lysine (PDL), with 2×10^4 cells per well. After 8 h of culture, the original culture medium was discarded, and 60 µL of Fluo-4/AM dye with a final concentration of 4 µM was added. The plates were incubated at 37 °C for 60 min, and then rinsed five times with calcium flow detection buffer. […] Then, the agonist Englerin A (EA) (MedChemExpress, Shanghai, China, final concentration of 0.3nM) was added, and the fluorescence signal was collected for 600 seconds. The fluorescence signal of the trajectory diagram is represented by F/F0, wherein F is the fluorescence signal at different time points, and F0 is the basic fluorescence signal, that is, the average value of the fluorescence signal at the first 10 time points. […] The area under the curve of the change in fluorescence intensity after adding EA was calculated. IC50 value was calculated using log[Inhibitor] vs. response - Variable slope, taking into account the area under the curve and the log value of the concentration of the compound.

In the case of `Cn1c(=O)n(CCCO)c(=O)c2c1nc(C1CCC3(CC1)OCCO3)n2Cc1ccc(Cl)cc1` [Example E13, 7-(4-chlorobenzyl)-1-(3-hydroxypropyl)-3-methyl-8-(1,4-dioxacyclo[4.5]dec-8-yl)-3,7-dihydro-1H-purine-2,6-dione], the IC50 is reported as 82.1 nM.

same assay, conditions: Table 1, TRPC5 channels, HEK-293 cells expressing hTRPC5; read-out: FLIPR IC50

First: Cn1c(=O)n(CCCO)c(=O)c2c1cc(C1=CCCC1)n2Cc1ccc(Cl)cc1 [Example E1, 5-(4-chlorobenzyl)-6-(cyclopent-1-en-1-yl)-3-(3-hydroxypropyl)-1-methyl-1,5-dihydro-2H-pyrrolo[3,2-d]pyrimidine-2,4(3H)-dione]
Second: Cn1c(=O)n(CCCO)c(=O)c2c1cc(C1CCCC1)n2Cc1ccc(Cl)cc1 [Example E2, 5-(4-chlorobenzyl)-6-cyclopentyl-3-(3-hydroxypropyl)-1-methyl-1,5-dihydro-2H-pyrrolo[3,2-d]pyrimidine-2,4(3H)-dione]
The IC50 of the first is 1.6-fold lower: 69.4 nM for the first, 112 nM for the second. The first is the more potent here.

First: CC(C)OC1CC=C(c2nc3c(c(=O)n(CCCO)c(=O)n3C)n2Cc2ccc(Cl)cc2)CC1 (stereo not shown) [Example E8, 7-(4-chlorobenzyl)-1-(3-hydroxypropyl)-8-(4-isopropoxycyclohex-1-en-1-yl)-3-methyl-3,7-dihydro-1H-purine-2,6-dione]
Second: Cn1c(=O)n(CCCO)c(=O)c2c1nc(C1=CCC(C(F)(F)F)CC1)n2Cc1ccc(Cl)cc1 (stereo not shown) [Example E41, 7-(4-chlorobenzyl)-1-(3-hydroxypropyl)-3-methyl-8-(4-(trifluoromethyl)cyclohex-1-en-1-yl)-3,7-dihydro-1H-purine-2,6-dione]
The IC50 of the first is 2.9-fold lower: 19.3 nM for the first, 55.5 nM for the second.

First: Cn1c(=O)n(CCCO)c(=O)c2c1nc(C1=CCC(C)(C)CC1)n2Cc1ccc(Cl)cc1 [Example E11, 7-(4-chlorobenzyl)-8-(4,4-dimethylcyclohex-1-en-1-yl)-1-(3-hydroxypropyl)-3-methyl-3,7-dihydro-1H-purine-2,6-dione]
Second: Cn1c(=O)n(CCCO)c(=O)c2c1nc(C1=CC(F)C(C)(C)CC1)n2Cc1ccc(Cl)cc1 (stereo not shown) [Example E34]
The IC50 of the first is 5.6-fold lower: 8.79 nM for the first, 49.1 nM for the second.

Compared with `Cn1c(=O)n(CCCO)c(=O)c2c1nc(C1CCC(C(F)(F)F)CC1)n2Cc1ccc(Cl)cc1` (stereo not shown) [Example E12, 7-(4-chlorobenzyl)-1-(3-hydroxypropyl)-3-methyl-8-(4-(trifluoromethyl)cyclohexyl)-3,7-dihydro-1H-purine-2,6-dione], `Cn1c(=O)n(CCCO)c(=O)c2c1nc(C1(O)CCC(C(F)(F)F)CC1)n2Cc1ccc(Cl)cc1` (stereo not shown) [Example E23, 7-(4-chlorobenzyl)-8-(1-hydroxy-4-(trifluoromethyl)cyclohexyl)-1-(3-hydroxypropyl)-3-methyl-3,7-dihydro-1H-purine-2,6-dione] is 24-fold higher in IC50: 13.5 nM for the first, 322 nM for the second.

Going from `CC(C)n1c(=O)n(CCCO)c(=O)c2c1nc(C1CC1C1CCCC1)n2Cc1ccc(Cl)cc1` (stereo not shown) [Example E15, 7-(4-chlorobenzyl)-8-(2-cyclopentylcyclopropyl)-1-(3-hydroxypropyl)-3-isopropyl-3,7-dihydro-1H-purine-2,6-dione] to `CC(C)n1c(=O)n(CCCO)c(=O)c2c1nc(C1(F)CCC(C(F)(F)F)CC1)n2Cc1ccc(Cl)cc1` (stereo not shown) [Example E53, 7-(4-chlorobenzyl)-8-(1-fluoro-4-(trifluoromethyl)cyclohexyl)-1-(3-hydroxypropyl)-3-isopropyl-3,7-dihydro-1H-purine-2,6-dione], the IC50 falls from 76 nM to 41.4 nM (1.8-fold).

`Cn1c(=O)n(CCCO)c(=O)c2c1nc(/C=N/OC(C)(C)C)n2Cc1ccc(Cl)cc1` [Example E18, (E)-7-(4-chlorobenzyl)-1-(3-hydroxypropyl)-3-methyl-2,6-dioxo-2,3,6,7-tetrahydro-1H-purine-8-carbaldehyde-O-(tert-butyl)oxime] and `C/C(=N\OC(C)(C)C)c1nc2c(c(=O)n(CCCO)c(=O)n2C)n1Cc1ccc(Cl)cc1` [Example E27, (E)-8-(1-(tert-butoxyimino)ethyl)-7-(4-chlorobenzyl)-1-(3-hydroxypropyl)-3-methyl-3,7-dihydro-1H-purine-2,6-dione] are within 1.5-fold of each other in IC50: 43.8 nM for the first, 64.7 nM for the second.

Compared with `Cn1c(=O)n(CCCO)c(=O)c2c1nc(C1=Cc3ccccc3C1)n2Cc1ccc(Cl)cc1` [Example E20, 7-(4-chlorobenzyl)-1-(3-hydroxypropyl)-8-(1H-inden-2-yl)-3-methyl-3,7-dihydro-1H-purine-2,6-dione], `CC1CCC(F)(c2nc3c(c(=O)n(CCCO)c(=O)n3C)n2Cc2ccc(Cl)cc2)CC1` (stereo not shown) [Example E39, 7-(4-chlorobenzyl)-8-(1-fluoro-4-methylcyclohexyl)-1-(3-hydroxypropyl)-3-methyl-3,7-dihydro-1H-purine-2,6-dione] is 18-fold lower in IC50: 83.8 nM for the first, 4.63 nM for the second.

Compared with `COC1(c2nc3c(c(=O)n(CCCO)c(=O)n3C)n2Cc2ccc(Cl)cc2)CCC(C(F)(F)F)CC1` (stereo not shown) [Example E22, 7-(4-chlorobenzyl)-1-(3-hydroxypropyl)-8-(1-methoxy-4-(trifluoromethyl)cyclohexyl)-3-methyl-3,7-dihydro-1H-purine-2,6-dione], `Cn1c(=O)n(CCCO)c(=O)c2c1nc(C1(F)CCC(C(F)(F)F)CC1)n2Cc1ccc(C#N)cc1` (stereo not shown) [Example E73, 4-((8-(1-fluoro-4-(trifluoromethyl)cyclohexyl)-1-(3-hydroxypropyl)-3-methyl-2,6-dioxo-1,2,3,6-tetrahydro-7H-purin-7-yl)methyl)benzonitrile] is 110-fold lower in IC50: 198 nM for the first, 1.88 nM for the second. The second is the more potent here.

First: CCC1CCC(F)(c2nc3c(c(=O)n(CCCO)c(=O)n3C)n2Cc2ccc(Cl)cc2)CC1 (stereo not shown) [Example E30, 7-(4-chlorobenzyl)-8-(4-ethyl-1-fluorocyclohexyl)-1-(3-hydroxypropyl)-3-methyl-3,7-dihydro-1H-purine-2,6-dione]
Second: Cn1c(=O)n(CCCO)c(=O)c2c1nc(C1(F)CCC(C#N)CC1)n2Cc1ccc(Cl)cc1 (stereo not shown) [Example E40, 4-(7-(4-chlorobenzyl)-1-(3-hydroxypropyl)-3-methyl-2,6-dioxo-2,3,6,7-tetrahydro-1H-purin-8-yl)-4-fluorocyclohexane-1-carbonitrile]
The IC50 of the first is 76-fold higher: 281 nM for the first, 3.7 nM for the second.

Compared with `CCn1c(=O)n(CCCO)c(=O)c2c1nc(C1(F)CCC(C(F)(F)F)CC1)n2Cc1ccc(Cl)c(F)c1` (stereo not shown) [Example E51, 7-(4-chloro-3-fluorobenzyl)-3-ethyl-8-(1-fluoro-4-(trifluoromethyl)cyclohexyl)-1-(3-hydroxypropyl)-3,7-dihydro-1H-purine-2,6-dione], `Cn1c(=O)n(CCCO)c(=O)c2c1nc(C1(F)CCC(C(F)(F)F)CC1)n2Cc1ccc(F)c(Cl)c1` (stereo not shown) [Example E69, 7-(3-chloro-4-fluorobenzyl)-8-(1-fluoro-4-(trifluoromethyl)cyclohexyl)-1-(3-hydroxypropyl)-3-methyl-3,7-dihydro-1H-purine-2,6-dione] is 8.6-fold lower in IC50: 3.19 nM for the first, 0.37 nM for the second.

Compared with `CCn1c(=O)n(CCCO)c(=O)c2c1nc(C1=CCC(C(F)(F)F)CC1)n2Cc1ccc(Cl)c(F)c1` (stereo not shown) [Example E57, 7-(4-chloro-3-fluorobenzyl)-3-ethyl-1-(3-hydroxypropyl)-8-(4-(trifluoromethyl)cyclohex-1-en-1-yl)-3,7-dihydro-1H-purine-2,6-dione], `Cn1c(=O)n(CCCO)c(=O)c2c1nc(C1(F)CCC(C(F)(F)F)CC1)n2Cc1ccc(F)cc1Cl` (stereo not shown) [Example E67, 7-(2-chloro-4-fluorobenzyl)-8-(1-fluoro-4-(trifluoromethyl)cyclohexyl)-1-(3-hydroxypropyl)-3-methyl-3,7-dihydro-1H-purine-2,6-dione] is 2.8-fold lower in IC50: 52.9 nM for the first, 18.9 nM for the second.

Going from `Cn1c(=O)n(CCCO)c(=O)c2c1nc(C1(F)CCC(C(F)(F)F)CC1)n2Cc1ccc(F)cc1F` (stereo not shown) [Example E65, 7-(2,4-difluorobenzyl)-8-(1-fluoro-4-(trifluoromethyl)cyclohexyl)-1-(3-hydroxypropyl)-3-methyl-3,7-dihydro-1H-purine-2,6-dione] to `Cn1c(=O)n(CCCO)c(=O)c2c1nc(C1(F)CCC(C(F)(F)F)CC1)n2Cc1ccc(Cl)cc1F` (stereo not shown) [Example E71, 7-(4-chloro-2-fluorobenzyl)-8-(1-fluoro-4-(trifluoromethyl)cyclohexyl)-1-(3-hydroxypropyl)-3-methyl-3,7-dihydro-1H-purine-2,6-dione], the IC50 falls from 2.85 nM to 0.27 nM (11-fold).
